{"source": "paper PMC10451632", "about": "“Site Mutation Improves the Expression and Antimicrobial Properties of Fungal Defense” (Antibiotics, 2023)", "key": {"S. aureus CICC 10473": {"tested_on": "S. aureus CICC 10473", "test": "MIC, microtiter broth dilution", "type": "cell-based, Staphylococcus aureus", "details": "MHB, 10^5 CFUs/mL, 16–18 h at 37 °C", "protocol": "(§1) The MIC value of PN7 against bacteria was determined by the microtiter broth dilution method. Briefly, bacteria grown to the exponential phase were diluted into MHB; subsequently, 90 μL of bacterial suspension (10^5 CFUs/mL) was mixed with 10 μL of different concentrations of PN7 in a sterilized 96-well microtiter plate (Nunc). MIC values were recorded after incubation for 16–18 h at 37 °C based on the lowest concentrations of peptides in which no visible bacterial growth was observed."}, "E. coli ATCC 25922": {"tested_on": "E. coli ATCC 25922", "test": "MIC, microtiter broth dilution", "type": "cell-based, Escherichia coli", "details": "MHB, 10^5 CFUs/mL, 16–18 h at 37 °C", "protocol": "as §1"}, "E. coli O157": {"tested_on": "E. coli O157", "test": "MIC, microtiter broth dilution", "type": "cell-based, Escherichia coli", "details": "MHB, 10^5 CFUs/mL, 16–18 h at 37 °C", "protocol": "as §1"}, "E. coli CVCC 1515": {"tested_on": "E. coli CVCC 1515", "test": "MIC, microtiter broth dilution", "type": "cell-based, Escherichia coli", "details": "MHB, 10^5 CFUs/mL, 16–18 h at 37 °C", "protocol": "as §1"}, "S. aureus E48": {"tested_on": "S. aureus E48", "type": "cell-based, Staphylococcus aureus", "protocol": "The experimental operation of the expression of the Plectasin variant in P. pastoris in well plates, shaking flasks, and 5 L level fermentation was performed as referenced in previous studies. Candidates were identified through three different levels of screening. Firstly, a large number of transformants were screened through well plates to induce expression and determined by the inhibition zone assay (against S. aureus ATCC 43300). Secondly, the transformants with obvious inhibition zones were sequenced to obtain protein sequence information, then induced expression at the shake level. The supernatant was collected and purified to obtain the target protein; the anti-Staphylococcus aureus activity of the protein was detected by a MIC assay. Finally, the codons of candidate sequences were optimized, the expression vector was reconstructed, the optimal transformers were obtained, and the high-density cultivation was performed in a 5 L fermenter. The final agent was determined by high protein yield and good activity (Figure 2).\nas §1"}, "[1]": {"test": "Stability in simulated intestinal fluid, MIC read-out", "type": "in vitro ADME", "protocol": "The stability of peptide PN7 in SGF, SIF, and 25% or 50% mouse serum was carried out as previously described. A final concentration of 1280 μg/mL PN7 was prepared and incubated at 37 °C and then diluted twice. The MIC was determined."}, "ICR mice": {"tested_on": "ICR mice", "test": "In vivo toxicity, intraperitoneal injection", "design": "species or system mouse", "protocol": "ICR mice (6–8 weeks old, male, n = 5 per group; Charles River, Beijing, China) were intraperitoneally injected with PN7 (10 mg/kg, body weight) for 6 days, and the changes in mice behavior and body weight were recorded. At the same time, blood and organ tissues were collected for whole-blood cell and biochemical index analysis and H.E. staining."}, "[2]": {"test": "Thermal stability, MIC read-out", "type": "physicochemical", "details": "1 h, 1280 μg/mL in physiological saline, triplicate", "protocol": "PN7 dissolved in physiological saline solution was prepared into mother liquor with a concentration of 1280 μg/mL and incubated at different temperatures for 1 h. PN7 was dissolved in different pH buffers at 37 °C for 4 h. After double gradient dilution, MIC assays were used to detect the change in antibacterial activity."}, "[3]": {"tested_on": "Gram-negative bacteria such as Escherichia coli, Salmonella, and Pseudomonas aeruginosa", "test": "MIC against Gram-negative bacteria", "type": "cell-based", "details": "Gram-negative bacteria (Table 6)", "protocol": "as §1"}, "[4]": {"tested_on": "Escherichia coli CVCC 195", "test": "MIC, microtiter broth dilution", "type": "cell-based", "details": "MHB, 10^5 CFUs/mL, 16–18 h at 37 °C", "protocol": "as §1"}, "[5]": {"tested_on": "S. epidermidis ATCC 35984", "test": "MIC, microtiter broth dilution", "type": "cell-based", "details": "MHB, 10^5 CFUs/mL, 16–18 h at 37 °C", "protocol": "as §1"}, "S. agalactiae CAU-FRI-4": {"tested_on": "S. agalactiae CAU-FRI-4", "test": "MIC, microtiter broth dilution", "type": "cell-based", "details": "MHB, 10^5 CFUs/mL, 16–18 h at 37 °C", "protocol": "as §1"}, "[6]": {"tested_on": "Streptococcus. suis CVCC 606", "test": "MIC, microtiter broth dilution", "type": "cell-based", "details": "MHB, 10^5 CFUs/mL, 16–18 h at 37 °C", "protocol": "as §1"}, "S. agalactiae ATCC 13813": {"tested_on": "S. agalactiae ATCC 13813", "test": "MIC, microtiter broth dilution", "type": "cell-based", "details": "MHB, 10^5 CFUs/mL, 16–18 h at 37 °C", "protocol": "as §1"}, "S. enteritidis CVCC 3377": {"tested_on": "S. enteritidis CVCC 3377", "test": "MIC, microtiter broth dilution", "type": "cell-based", "details": "MHB, 10^5 CFUs/mL, 16–18 h at 37 °C", "protocol": "as §1"}, "[7]": {"tested_on": "Pseudomonas aeruginosa CICC 20625", "test": "MIC, microtiter broth dilution", "type": "cell-based", "details": "MHB, 10^5 CFUs/mL, 16–18 h at 37 °C", "protocol": "as §1"}, "S. pullorum CVCC 1789": {"tested_on": "S. pullorum CVCC 1789", "test": "MIC, microtiter broth dilution", "type": "cell-based", "details": "MHB, 10^5 CFUs/mL, 16–18 h at 37 °C", "protocol": "as §1"}, "S. hyicus 437-2": {"tested_on": "S. hyicus 437-2", "test": "MIC, microtiter broth dilution", "type": "cell-based", "details": "MHB, 10^5 CFUs/mL, 16–18 h at 37 °C", "protocol": "as §1"}, "S. hyicus NCTC 10350": {"tested_on": "S. hyicus NCTC 10350", "test": "MIC, microtiter broth dilution", "type": "cell-based", "details": "MHB, 10^5 CFUs/mL, 16–18 h at 37 °C", "protocol": "as §1"}, "[8]": {"tested_on": "Salmonella enterica ATCC 13076", "test": "MIC, microtiter broth dilution", "type": "cell-based", "details": "MHB, 10^5 CFUs/mL, 16–18 h at 37 °C", "protocol": "as §1"}, "[9]": {"details": "10 mg/kg daily intraperitoneal injection for 6 days, n = 5 per group"}}, "note": "“Also recorded” adds a separate entry of the source. Like-named read-outs stand apart in the source and are kept apart here. Bridge positions count the residues as written; N and C are the ends. Peptide text beside a SMILES is read from it."}
{"molecule": "CC[C@H](C)[C@@H]1NC(=O)[C@H](CO)NC(=O)[C@H](CCCCN)NC(=O)[C@@H]2CSSC[C@@H](C(=O)N[C@@H](Cc3ccc(O)cc3)C(=O)O)NC(=O)[C@H](CCCCN)NC(=O)[C@@H]3CSSC[C@H](NC(=O)[C@H](CCCNC(=N)N)NC(=O)CNC(=O)[C@H](CC(=O)O)NC(=O)[C@H](CC(=O)O)NC(=O)[C@H](CCC(=O)O)NC(=O)[C@H](Cc4ccc(O)cc4)NC(=O)[C@H](Cc4c[nH]c5ccccc45)NC(=O)[C@@H]4CCCN4C(=O)CNC(=O)[C@H](CC(N)=O)NC(=O)[C@@H](NC(=O)CNC(=O)[C@H](Cc4ccccc4)NC(=O)CN)CSSC[C@H](NC(=O)[C@H](Cc4ccc(O)cc4)NC(=O)CNC(=O)CNC(=O)[C@H](CCCCN)NC(=O)[C@H](Cc4ccc(O)cc4)NC(=O)CNC(=O)[C@H](CCCCN)NC1=O)C(=O)N[C@@H](C)C(=O)N[C@@H](CCCCN)C(=O)NCC(=O)NCC(=O)N[C@@H](Cc1ccccc1)C(=O)N[C@@H](C(C)C)C(=O)N3)C(=O)N[C@@H](Cc1c[nH]cn1)C(=O)N[C@@H](CC(N)=O)C(=O)N[C@@H](Cc1c[nH]cn1)C(=O)N2", "note": "[PN7] (H-GFGCNGPWYEDDGRCHNHCKSIKGYKGGYCAKGGFVCKCY-OH; disulfide 4-30, 15-37, 19-39 (inferred); N-terminus and C-terminus assumed)", "values": [{"measurement": "MIC", "setting": "S. aureus CICC 10473", "value": 4, "unit": "µg/mL"}, {"measurement": "MIC", "setting": "E. coli ATCC 25922", "value": ">128", "unit": "µg/mL"}, {"measurement": "MIC", "setting": "E. coli O157", "value": ">128", "unit": "µg/mL"}, {"measurement": "MIC", "setting": "E. coli CVCC 1515", "value": ">128", "unit": "µg/mL"}, {"measurement": "MIC", "setting": "S. aureus E48; S. aureus E48, purified protein induced by shaking flasks", "value": 4, "unit": "µg/mL"}, {"measurement": "MIC", "setting": "S. aureus E48; microtiter broth dilution, MHB, 10^5 CFUs/mL, 16–18 h at 37 °C", "value": 1, "unit": "µg/mL"}, {"measurement": "activity after incubation with simulated intestinal fluid (SIF)", "setting": "[1]; 1280 μg/mL PN7, 37 °C, then two-fold dilution, triplicate", "value": "abolished the activity"}, {"measurement": "sensitivity to trypsin", "setting": "[1]; Figure 7E", "value": "sensitive to trypsin"}, {"measurement": "histological morphology of mouse organs (H&E)", "setting": "ICR mice; [9]", "value": "showed no difference"}, {"measurement": "murine behavior and body weight", "setting": "ICR mice; [9]", "value": "did not observe a change in murine behavior or the loss of body weight"}, {"measurement": "toxicity to mice, overall", "setting": "ICR mice; intraperitoneal injection for 6 d, observation 1 week", "value": "no toxicity; also recorded: no significant differences compared with the control group"}, {"measurement": "thermal stability (antibacterial activity)", "setting": "[2]; 20–80 °C", "value": "stable"}, {"measurement": "decrease of antibacterial activity", "setting": "[2]; 100 °C", "value": 1, "unit": "fold"}, {"measurement": "MIC", "setting": "[3]", "value": "over 128 μg/mL"}, {"measurement": "MIC", "setting": "[4]", "value": ">128", "unit": "µg/mL"}, {"measurement": "MIC", "setting": "[5]", "value": 16, "unit": "µg/mL"}, {"measurement": "MIC", "setting": "S. agalactiae CAU-FRI-4", "value": 1, "unit": "µg/mL"}, {"measurement": "MIC", "setting": "[6]", "value": 1, "unit": "µg/mL"}, {"measurement": "MIC", "setting": "S. agalactiae ATCC 13813", "value": 2, "unit": "µg/mL"}, {"measurement": "MIC", "setting": "S. enteritidis CVCC 3377", "value": ">128", "unit": "µg/mL"}, {"measurement": "MIC", "setting": "[7]", "value": ">128", "unit": "µg/mL"}, {"measurement": "MIC", "setting": "S. pullorum CVCC 1789", "value": ">128", "unit": "µg/mL"}, {"measurement": "MIC", "setting": "S. hyicus 437-2", "value": 8, "unit": "µg/mL"}, {"measurement": "MIC", "setting": "S. hyicus NCTC 10350", "value": 4, "unit": "µg/mL"}, {"measurement": "MIC", "setting": "[8]", "value": ">128", "unit": "µg/mL"}]}
